In patent US20120253470A1, “COMPOSITIONS FOR BONE TISSUE REPAIR AND USES THEREOF” (PRESIDENT AND FELLOWS OF HARVARD COLLEGE, priority 2011, published 2012):

Key:
[1] = system: segmental femur defect; assay: Repair of long bone (segmental femur) defect in mice; assay type: in vivo, C57/BI/6 wild-type mice
Experimental: (§1) The model animals used in this investigation were 10 week-old, skeletally mature, male C57/BI/6 wild-type mice. Mice are anesthetized by intramuscular injection with ketamine (7.5 mg/100 g body weight and xylazine (5-10 mg/kg body weight). The skin is shaved with an electric device and then scrubbed with a povidone-iodine scrub (e.g., Betadine®) and 70% alcohol, taking care to scrub from the center of the site toward the periphery. The site is then rinsed with 70% alcohol. At least three alternating preparations of germicidal scrub and rinse are performed. Finally, the area is draped with sterile drapes, which not only help to prevent contaminants from entering the surgical field, but also provide a sterile area on which to lay sterile instruments during surgery.
Full-thickness flaps are utilized in order to gain access to the femur. A roughly 5 mm length segmental femur defect is created on the C57/BI/6 mice. Once the defect has been created all mice received cell-free grafts. Control mice received no additional treatment, while the second group of mice received treatment with prom-1 #237. Soft tissues are closed with sutures. After the surgery, the animals are monitored until fully alert and monitoring continues thereafter for any issues related to discomfort, pain or infection. […] Medication to control pain is also delivered right after surgery and if detected subsequently. […] The animal is monitored continuously until it regains sternal recumbence and is capable of holding its head up, and is returned to its regular cage only when it is alert, mobile and breathing normally. […]
(§2) Post-surgical observations include a minimum daily observation, including weekends and holidays, of the condition of the animal and the surgical site. […] Pain/distress is monitored by monitoring the physiological parameters and behavioral responses although distress is more difficult to define and identify than pain. […] The animals are evaluated at day 14 after the creation of the defect to determine the extent of repair and regeneration.

[2] = system: craniotomy defect of the calvaria; assay: Repair of calvarial bone defect in mice; assay type: in vivo, C57/BI/6 wild-type mice; conditions: prom-1 #237 added to composition containing FDBA
Experimental: as §1, with “One of the most common models used to test bone repair methods and compositions is defects in the calvarial bone in a model organism. Mice, rats, and rabbits are all frequently used in this model of flat bone repair. The model” for “The model”, “weight). The calvaria skin is” for “weight). The skin is”
Full-thickness flaps are utilized in order to gain access to the calvaria. […] After the surgery, the animals are monitored until fully alert and monitoring continues thereafter for any issues related to discomfort, pain or infection. […] Medication to control pain is also delivered right after surgery and if detected subsequently. […] The animal is monitored continuously until it regains sternal recumbence and is capable of holding its head up, and is returned to its regular cage only when it is alert, mobile and breathing normally. […]
as §2, with “56” for “14”

[3] = femur defect with cell-free graft, day 14

DRVQRQTTTVVA (SEQ ID NO: 35) [prom-1 #237]
ability of existing mouse cells to colonize the scaffold material and repair a large defect in the long bone [1, 3]: greatly increased | total extent of recovery [1, 3]: markedly improved | new bone growth / callus formation at the defect (FIG. 1B) ([1]; roughly 5 mm segmental femur defect, given in addition to cell-free graft, evaluated at day 14, versus graft only): significant callus formation | time to recovery [2]: significantly reduced | ability of existing mouse cells to colonize the FDBA scaffold material and repair a large defect in the calvarial flat bone ([2]; day 56): greatly increases | total extent of recovery ([2]; day 56): markedly improved
